From US20060235046A1, “Use of an epidermal growth factor receptor kinase inhibitor (EGFR) in gefitinib resistant patients” (Wyeth, priority 2005, published 2006)

Tests used:
NSCLC = conditions: in some cases; re-treatment when NSCLC recurs in patients treated with gefitinib; cited from earlier work
[1] = test system: non-small cell lung cancer (NSCLC); assay: Report on 2 patients with non-small cell lung cancer (NSCLC) who received EKB-569 after gefitinib and recurrence; type: in vivo, human; conditions: two patients (Exon 19 del E746-A750, 25 mg/day for 9 months; Exon 21 L858R, 35 mg/day for 4 months) after treatment with gefitinib and recurrence of NSCLC
Method: Report on 2 Patients with Non-Small Cell Lung Cancer (NSCLC) Who Received EKB-569.
A person with a smoking history BI 720 […] having adenocarcinoma and cT0NOM1 (multiple pulmonary metastasis). Exon 19 deletion E746-A750 is identified. Herception test score was 0+ and EGFR score 2+. The patient was given 25 mg/day EKB-569 for 9 months.
A person with a smoking history of BI 30 (10×3 years) having adenocarcinoma performance status 1, cT0N3M1 (pulmonary, brain and bone). Exon 21 point mutation L858R. HercepTest score +, EGFR score 3+, EKB-569 35 mg/day for 4 months.
Phase 1 dose-escalation study of EKB-569 was completed in Japanese patients with advanced-stage malignancies known to overexpress EGFR.

| SMILES | effectiveness of re-treatment in recurrent NSCLC (NSCLC) | clinical effectiveness in NSCLC patients [1] |
| --- | --- | --- |
| COc1cc2ncnc(Nc3ccc(F)c(Cl)c3)c2cc1OCCCN1CCOCC1 [gefitinib] | effective |  |
| CCOc1cc2ncc(C#N)c(Nc3ccc(F)c(Cl)c3)c2cc1NC(=O)C=CCN(C)C [EKB-569, 4-dimethylamino-but-2-enoic acid [4-(3-chloro-4-fluoro-phenylamino)-3-cyano-7-ethoxy-quinolin-6-yl]-amide] |  | effective |
